Reference: patent publication US9796741B2 (Achillion Pharmaceuticals, Inc., priority 2014, dated 2017)

Target: Human factor D (Homo sapiens (Human), UniProt P00746)
Experiment: Human Factor D Assay
Format: biochemical
Conditions: human factor D 80 nM, substrate Z-L-Lys-SBzl, DTNB
How it was run: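 Serum-purified factor D (80 nM final) preincubated 5 min at room temperature with compound in 50 mM Tris, 1M NaCl, pH 7.5. Z-L-Lys-SBzl and DTNB added at 100 μM each; OD405 followed kinetically over 30 min. IC50 by non-linear regression of % inhibition.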

Chain of Human factor D (P00746 26-253): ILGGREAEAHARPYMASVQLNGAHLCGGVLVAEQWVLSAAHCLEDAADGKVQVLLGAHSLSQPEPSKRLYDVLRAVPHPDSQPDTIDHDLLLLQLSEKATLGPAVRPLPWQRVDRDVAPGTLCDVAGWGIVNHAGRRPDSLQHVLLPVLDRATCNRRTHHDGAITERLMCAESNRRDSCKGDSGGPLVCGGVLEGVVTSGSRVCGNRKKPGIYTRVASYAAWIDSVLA

| SMILES | IC50 |
| --- | --- |
| CC(=O)c1cn(CC(=O)N2C[C@@H](F)C[C@@H]2C(=O)NC2CCCN(c3ccccc3Cl)C2=O)c2ccc(-c3ccnnc3)cc12 (stereo partly drawn) [Compound 161, (2R,4S)-1-(2-(3-acetyl-5-(pyridazin-4-yl)-1H-indol-1-yl)acetyl)-N-(1-(2-chlorophenyl)-2-oxopiperidin-3-yl)-4-fluoropyrrolidine-2-carboxamide] | < 1000 nM |
| CC(=O)c1nn(CC(=O)N2C[C@H](F)C[C@H]2C(=O)Nc2cccc(-c3ccccc3Cl)c2F)c2ccc(-c3cnc(C)nc3)cc12 [Compound 163, (2S,4R)-1-(2-(3-acetyl-5-(2-methylpyrimidin-5-yl)-1H-indazol-1-yl)acetyl)-N-(2′-chloro-2-fluorobiphenyl-3-yl)-4-fluoropyrrolidine-2-carboxamide] | < 1000 nM |
| CC(=O)c1cn(CC(=O)N2C[C@H](F)C[C@H]2C(=O)Nc2cccc(-c3ncccc3Cl)c2F)c2ccc(-c3cnc(C)nc3)cc12 [Compound 164, (2S,4R)-1-(2-(3-acetyl-5-(2-methylpyrimidin-5-yl)-1H-indol-1-yl)acetyl)-N-(3-(3-chloropyridin-2-yl)-2-fluorophenyl)-4-fluoropyrrolidine-2-carboxamide] | < 1000 nM |
| CC(=O)c1cn(CC(=O)N2C[C@H](F)C[C@H]2C(=O)Nc2noc(-c3ccccc3Cl)n2)c2ccc(-c3ccnnc3)cc12 [Compound 182, (2S,4R)-1-(2-(3-acetyl-5-(pyridazin-4-yl)-1H-indol-1-yl)acetyl)-N-(5-(2-chlorophenyl)-1,2,4-oxadiazol-3-yl)-4-fluoropyrrolidine-2-carboxamide] | < 1000 nM |
| CC(=O)c1cn(CC(=O)N2C[C@H](F)C[C@H]2C(=O)Nc2cccc(-c3ccccc3Cl)c2F)c2ccc(-c3cnc(O)nc3)cc12 [Compound 186, (2S,4R)-1-(2-(3-acetyl-5-(2-hydroxypyrimidin-5-yl)-1H-indol-1-yl)acetyl)-N-(2′-chloro-2-fluorobiphenyl-3-yl)-4-fluoropyrrolidine-2-carboxamide] | < 1000 nM |
| COCCNc1ncc(-c2ccc3c(c2)c(C(C)=O)cn3CC(=O)N2C[C@H](F)C[C@H]2C(=O)Nc2cccc(-c3ccccc3Cl)c2F)cn1 [Compound 187, (2S,4R)-1-(2-(3-acetyl-5-(2-(2-methoxyethylamino)pyrimidin-5-yl)-1H-indol-1-yl)acetyl)-N-(2′-chloro-2-fluorobiphenyl-3-yl)-4-fluoropyrrolidine-2-carboxamide] | < 1000 nM |
| CNc1ncc(-c2ccc3c(c2)c(C(C)=O)cn3CC(=O)N2C[C@H](F)C[C@H]2C(=O)Nc2cccc(-c3ccccc3Cl)c2F)cn1 [Compound 188, (2S,4R)-1-(2-(3-acetyl-5-(2-(methylamino)pyrimidin-5-yl)-1H-indol-1-yl)acetyl)-N-(2′-chloro-2-fluorobiphenyl-3-yl)-4-fluoropyrrolidine-2-carboxamide] | < 1000 nM |
